Experimental data from the CheMixHub viscosity set.

Assay: xn = mol fraction of the nth substance listed

O=[N+]([O-])c1ccccc1O + Brc1ccccc1
viscosity [mPa·s], 101 kPa
Details | 303.15 K | 308.15 K | 313.15 K | 318.15 K | 323.15 K
x1 = 0.602 | 1.884 | 1.719 | 1.576 | 1.46 | 1.35
x1 = 0.8579 | – | 2.658 | 2.366 | 2.134 | 1.934

CCCCCCCCCO + C1CCCCC1
viscosity [mPa·s]
Details | 293.15 K | 303.15 K | 313.15 K | 323.15 K
100 kPa, x2 = 0.0822 | 9.85 | 6.89 | 4.93 | 3.66
100 kPa, x2 = 0.1616 | 8.5 | 6 | 4.32 | 3.23
100 kPa, x2 = 0.2413 | 7.2 | 5.17 | 3.76 | 2.83
100 kPa, x2 = 0.3502 | 5.63 | 4.15 | 3.05 | 2.33
100 kPa, x2 = 0.4404 | 4.51 | 3.44 | 2.54 | 1.96
100 kPa, x2 = 0.5611 | 3.29 | 2.63 | 1.97 | 1.56
100 kPa, x2 = 0.6503 | 2.57 | 2.13 | 1.6 | 1.3
100 kPa, x2 = 0.7412 | 1.96 | 1.68 | 1.3 | 1.08
100 kPa, x2 = 0.8514 | 1.42 | 1.26 | 1.03 | 0.86
100 kPa, x2 = 0.9397 | 1.11 | 0.97 | 0.81 | 0.7
101.33 kPa, x1 = 0.105 | – | 1.068 | – | –
101.33 kPa, x1 = 0.2105 | – | 1.397 | – | –
101.33 kPa, x1 = 0.311 | – | 1.784 | – | –
101.33 kPa, x1 = 0.3969 | – | 2.186 | – | –
101.33 kPa, x1 = 0.4955 | – | 2.735 | – | –
101.33 kPa, x1 = 0.6055 | – | 3.462 | – | –
101.33 kPa, x1 = 0.6959 | – | 4.153 | – | –
101.33 kPa, x1 = 0.801 | – | 5.108 | – | –
101.33 kPa, x1 = 0.9054 | – | 6.215 | – | –

Cc1cccc2ccccc12 + CC1CCCCC1
viscosity [mPa·s], 100 kPa
Details | x1 = 0.125 | x1 = 0.25 | x1 = 0.375 | x1 = 0.5 | x1 = 0.625 | x1 = 0.75 | x1 = 0.875
303.15 K | 0.715 | 0.829 | 0.972 | 1.13 | 1.37 | 1.67 | 2.06
323.15 K | 0.559 | 0.64 | 0.733 | 0.853 | 1.01 | 1.2 | 1.44

CC(=O)N(C)C + CC#N
303.15 K, 101.33 kPa
Details | viscosity [mPa·s]
x2 = 0.0996 | 0.8371
x2 = 0.2019 | 0.7966
x2 = 0.2938 | 0.7487
x2 = 0.3974 | 0.7001
x2 = 0.497 | 0.6422
x2 = 0.5983 | 0.5843
x2 = 0.7013 | 0.5199
x2 = 0.7983 | 0.4568
x2 = 0.9001 | 0.3878

CCC1CCCCC1 + CC(=O)CC(C)C
298.15 K, 101 kPa
Details | viscosity [mPa·s]
x2 = 0.1314 | 0.695
x2 = 0.2549 | 0.645
x2 = 0.3669 | 0.621
x2 = 0.473 | 0.6
x2 = 0.5856 | 0.583
x2 = 0.7041 | 0.567
x2 = 0.8091 | 0.556
x2 = 0.9079 | 0.547

CC(=O)N(C)C + CC(C)O
303.15 K, 101 kPa
Details | viscosity [mPa·s]
x1 = 0.1016 | 1.428
x1 = 0.2027 | 1.222
x1 = 0.3046 | 1.1
x1 = 0.5032 | 0.994
x1 = 0.6012 | 0.945
x1 = 0.7055 | 0.939
x1 = 0.906 | 0.884
